{"source": "patent US9724341B2", "about": "(priority 2013, dated 2017)", "remark": "listed apart in the source", "key": {"[1]": {"protocol": "The innate volatility of free base nicotine can be greatly altered once bound to a counterion acid. The stability of nicotine in the resulting salt form can vary widely, ultimately impacting its desirability for commercial consideration. Certain packaging configurations can mitigate nicotine loss. […] Decreasing the equilibrium vapor pressure point is believed to minimize the total nicotine loss. For this study, different packaging configurations were tested to investigate the following variables: container material, presence of adjuncts, and total volume of space. Container materials consisted of either glass or multi-laminate foil pouches. Glass is impermeable to vapors. Once the total volume of the glass container is flooded with nicotine vapors and any surface adsorption occurs, equilibrium is reached and no additional loss of nicotine should be observed. Though foil is also impermeable, the inner surface of the pouch is lined with an ethylene acid copolymer that promotes vapor absorbency. The copolymer should lead to greater nicotine loss within a pouch than a glass vial of the same total volume.\nThe presence of adjuncts, such as a drug cartridge housing, is a likely scenario for the final commercial product. The composition of the adjunct will affect equilibrium vapor pressure point if it preferentially absorbs vapors. For this study, a polycarbonate adjunct with a surface area of ˜150 cm^2 was introduced to the glass vial and pouch scenarios. Finally, the total packaging volume was examined. The smaller the available space, the sooner the equilibrium pressure can be reached. Open containers represent the worst case scenario, as the infinite space means that the equilibrium pressure can never be achieved. To set up the experiment, screening foils were spray coated with a 1×2 cm footprint of nicotine m-salicylate to a thickness of ˜11 ug nicotine/mm^2 (equivalent to a coated dose of 200 ug nicotine equivalent on an EMD foil). After a few random screening foils were assayed for initial time point coated dose, the remaining foils were placed in one of the following containers: • Capped glass vial (˜40 mL volume) • Heat-sealed standard pouch (˜133 mm×87 mm) • Heat-sealed standard pouch, stored with polycarbonate material (˜150 cm^2 surface area) • Uncapped glass vial (same vial as first bullet) • Binder-clipped (semi-sealed) standard pouch (˜133 mm×87 mm) • Capped glass vial, stored with polycarbonate • Heat-sealed half pouch (˜69 mm×87 mm) • Uncovered Petri dish\nThe packaged screening foils were stored at either 40° C. (oven) or 25° C. (laboratory cabinet), without relative humidity control. At pre-determined time points, three foils from each condition were washed with 5 mL of 50% v/v acetonitrile in water and analyzed on the HPLC for nicotine and m-salicylate content."}, "[2]": {"settings": "for mechanical integrity of the film: dropped 5 times", "protocol": "Fragility of the spray coating was tested using two foil arrays coated with ˜200 μg of nicotine per foil (˜11 μg nicotine/mm^2, which is about a 21 μm thick film of nicotine m-salicylate). Five foils from each array were assayed for pre-drop coated dose. Each foil array was then placed into a dose cartridge, sealed into a plastic tube, and dropped 3 times onto the floor from a height of about 1 meter. Five additional foils from each array were assayed for the post-drop coated dose.\nIn a follow-up study, we studied the effect of thickness on the mechanical integrity of the film. In this experiment, three foils from an array were assayed for pre-drop coated dose. Each foil array was then placed into a dose cartridge, sealed into a plastic tube, and dropped 5 times onto the floor from a height of about 1 meter. Three foils from each array were then assayed for the post-drop coated dose."}, "[3]": {"settings": "for Nicotine Mass Loss: isothermal TGA, API powder", "protocol": "A typical calorimetric scan of nicotine m-salicylate powder is illustrated in FIG. 2. […] Thermogravimetric analysis on the powder was run in both scanning and isothermal modes. […] Isothermal data were also obtained on the API powder (˜10 mg per run) at 40° C., 50° C., and 60° C. for periods of at least 3 days."}, "[4]": {"protocol": "Solubility limit tests were performed on nicotine m-salicylate in a number of relevant solvents. […] The approximate saturation limits are in units of mg nicotine equivalent per mL of solvent. […] However, the analytical methods developed for detecting impurities related to the m-salicylate use 236 nm as the detection wavelength. Methanol has high absorbance in this range and can therefore interfere with the analytes of interest. Acetonitrile, on the other hand, has low background absorbance in this wavelength range and is therefore ideal for use.", "remark": "listed apart in the source"}, "[5]": {"settings": "sensitive LC method for phenol"}, "[6]": {"settings": "for time coated film relatively stable (not more than 20% nicotine loss): 40 μg/foil; for time coated film stable (nicotine): 170 μg/foil", "protocol": "Loss of nicotine and m-salicylic acid due to volatility and hygroscopic effects: Nicotine salts can suffer volatility issues and can also be quite hygroscopic. For instance, nicotine sulfate absorbs water so readily that it is shipped in aqueous solution. Hygroscopic effects on nicotine m-salicylate were evaluated for 2 doses at two conditions, 22° C./44% RH (ambient condition) and 40° C./75% RH. According to the Antoine equation for water, 40° C./75% RH translates to supersaturated humidity at 22° C. Each coated EMD array was placed flat on a Petri dish (without a cover) which was then stored at either 22° C./44% RH or 40° C./75% RH. At each time point, at least 4 random individual foils were removed from the array and each foil was extracted with 1.5 ml of 50/50 ACN/water for coated dose determination."}, "[7]": {"settings": "25° C.; cited from earlier work"}, "[8]": {"settings": "film thickness 29 μm, Post-drop (5 drops, about 1 meter)"}, "[9]": {"settings": "film thickness 37 μm, Post-drop (5 drops, about 1 meter)"}}, "note": "Where two headings read alike, the source gives them in different places.", "data": [{"compound": "CN1CCCC1c1cccnc1.O=C(O)c1cccc(O)c1", "note": "(stereo not drawn) [Nicotine m-salicylate, nicotine meta-salicylate]", "values": [{"measurement": "loss of nicotine content", "setting": "[1]; 25° C., Petri dish, 18 weeks", "value": 13, "unit": "%"}, {"measurement": "m-salicylic acid content", "setting": "[1]; 25° C., all eight conditions", "value": "stable"}, {"measurement": "Nicotine loss", "setting": "[1]; 25° C., up to 18 weeks, all conditions except Petri dish", "value": "≤ 7 % of initial"}, {"measurement": "m-salicylate content", "setting": "[1]; 40° C., all other configurations, 16 weeks", "value": "100-110 % of initial"}, {"measurement": "loss of nicotine content", "setting": "[1]; 40° C., all other stabilized (sealed) conditions", "value": "≤ 10", "unit": "%"}, {"measurement": "loss of nicotine content", "setting": "[1]; 40° C., sealed standard sized pouches containing polycarbonate material", "value": "~20", "unit": "%"}, {"measurement": "m-salicylate content", "setting": "[1]; Petri dish, four weeks at 40° C.", "value": "~80 % of initial"}, {"measurement": "mechanical integrity of the film", "setting": "[2]; 350 μg nicotine (~37 μm thick)", "value": "begin to show signs of fragility"}, {"measurement": "M-salicylate coated dose (average ± 1 standard deviation)", "setting": "[2]; [8]", "value": "244 ± 3"}, {"measurement": "Nicotine coated dose (average ± 1 standard deviation)", "setting": "[2]; [8]", "value": "277 ± 3"}, {"measurement": "M-salicylate coated dose (average ± 1 standard deviation)", "setting": "[2]; film thickness 29 μm, Pre-drop", "value": "247 ± 1"}, {"measurement": "Nicotine coated dose (average ± 1 standard deviation)", "setting": "[2]; film thickness 29 μm, Pre-drop", "value": "275 ± 3"}, {"measurement": "M-salicylate coated dose (average ± 1 standard deviation)", "setting": "[2]; [9]", "value": "299 ± 7"}, {"measurement": "Nicotine coated dose (average ± 1 standard deviation)", "setting": "[2]; [9]", "value": "335 ± 6"}, {"measurement": "M-salicylate coated dose (average ± 1 standard deviation)", "setting": "[2]; film thickness 37 μm, Pre-drop", "value": "311 ± 0"}, {"measurement": "Nicotine coated dose (average ± 1 standard deviation)", "setting": "[2]; film thickness 37 μm, Pre-drop", "value": "347 ± 6"}, {"measurement": "coated dose post-drop vs pre-drop, average of two arrays", "setting": "[2]; ~200 μg nicotine per foil, dropped 3 times", "value": "~0.8", "unit": "%"}, {"measurement": "mechanical integrity of the film", "setting": "[2]; ~29 μm thickness", "value": "not lost"}, {"measurement": "Nicotine Mass Loss", "setting": "[3]; 40° C.", "value": 5, "unit": "µg/day"}, {"measurement": "Nicotine Mass Loss", "setting": "[3]; 50° C.", "value": 19, "unit": "µg/day"}, {"measurement": "Nicotine Mass Loss", "setting": "[3]; 60° C.", "value": 107, "unit": "µg/day"}, {"measurement": "residual after scanning TGA", "setting": "[3]; room temperature to 500° C., pan weighed before and after", "value": "~0.2", "unit": "%"}, {"measurement": "nicotine mass loss, times less than nicotine ortho-salicylate", "setting": "[3]; storage temperatures between 40-60° C.", "value": "2-3 ×"}, {"measurement": "Saturation point", "setting": "[4]; 50/50 acetonitrile/water", "value": 64, "unit": "mg nicotine/mL"}, {"measurement": "Saturation point", "setting": "[4]; 80/20 methanol/water", "value": 118, "unit": "mg nicotine/mL"}, {"measurement": "Saturation point", "setting": "[4]; Acetonitrile", "value": 9, "unit": "mg nicotine/mL"}, {"measurement": "Saturation point", "setting": "[4]; Ethanol", "value": 33, "unit": "mg nicotine/mL"}, {"measurement": "Saturation point", "setting": "[4]; Methanol", "value": 103, "unit": "mg nicotine/mL"}, {"measurement": "Saturation point", "setting": "[4]; Water", "value": 58, "unit": "mg nicotine/mL"}, {"measurement": "Saturation point", "setting": "[4]; acetone", "value": "<<10 mg nicotine/mL"}, {"measurement": "solubility", "setting": "[4]; acetone", "value": "< 10", "unit": "mg/mL"}, {"measurement": "solubility", "setting": "[4]; pure acetonitrile", "value": "~10", "unit": "mg/mL"}, {"measurement": "MMAD", "setting": "NGI cups coated with 1% (w/v) benzoic acid", "value": 0.9, "unit": "um"}, {"measurement": "MMAD", "setting": "bare NGI cups, 30 LPM, average", "value": 0.7, "unit": "μm"}, {"measurement": "Particle size", "setting": "overall conclusion", "value": "about 1 μm"}, {"measurement": "maximum content of phenol in aerosols (estimated from method sensitivity; phenol not observed)", "setting": "[5]", "value": "≤ 0.013", "unit": "%"}, {"measurement": "time coated film relatively stable (not more than 20% nicotine loss)", "setting": "[6]; 22° C./60% RH", "value": "up to 4 weeks"}, {"measurement": "time coated film relatively stable (not more than 20% nicotine loss)", "setting": "[6]; 35° C./80% RH", "value": "≤ 5", "unit": "days"}, {"measurement": "time coated film relatively stable (not more than 20% nicotine loss)", "setting": "[6]; 60° C./35% RH", "value": "up to 4 hours"}, {"measurement": "time coated film stable (nicotine)", "setting": "[6]; 22° C./60% RH", "value": "≥ 4", "unit": "weeks"}, {"measurement": "time coated film stable (nicotine)", "setting": "[6]; 25° C./90% RH", "value": "≥ 13", "unit": "days"}, {"measurement": "time coated film stable (nicotine)", "setting": "[6]; 35° C./80% RH", "value": "≥ 7", "unit": "days"}, {"measurement": "time coated film stable (nicotine)", "setting": "[6]; 60° C./35% RH", "value": "at least 8 hours"}, {"measurement": "M-salicylic acid stability of coated films", "setting": "[6]; all conditions except the 40 μg/foil dose at 25° C./90% RH", "value": "relatively stable"}]}, {"compound": "CN1CCCC1c1cccnc1", "note": "(stereo not drawn) [Nicotine]", "values": [{"measurement": "vapor pressure", "setting": "[7]", "value": 0.0425, "unit": "mmHg"}]}, {"compound": "CN1CCCC1c1cccnc1.O=C(O)C(O)C(O)C(=O)O", "note": "(stereo not drawn) [Nicotine bitartrate]", "values": [{"measurement": "Nicotine Mass Loss", "setting": "[3]; 40° C.", "value": 1, "unit": "µg/day"}, {"measurement": "Nicotine Mass Loss", "setting": "[3]; 50° C.", "value": 3, "unit": "µg/day"}, {"measurement": "Nicotine Mass Loss", "setting": "[3]; 60° C.", "value": 10, "unit": "µg/day"}]}, {"compound": "CN1CCC[C@H]1c1cccnc1.O=C(O)c1ccccc1O", "note": "[Nicotine o-salicylate, nicotine ortho-salicylate]", "values": [{"measurement": "Nicotine Mass Loss", "setting": "[3]; 40° C.", "value": 15, "unit": "µg/day"}, {"measurement": "Nicotine Mass Loss", "setting": "[3]; 50° C.", "value": 48, "unit": "µg/day"}, {"measurement": "Nicotine Mass Loss", "setting": "[3]; 60° C.", "value": 178, "unit": "µg/day"}]}, {"compound": "CN1CCCC1c1cccnc1.O=C(O)/C=C/C(=O)O", "note": "(stereo not drawn) [Nicotine monofumarate]", "values": [{"measurement": "Nicotine Mass Loss", "setting": "[3]; 40° C.", "value": 7, "unit": "µg/day"}, {"measurement": "Nicotine Mass Loss", "setting": "[3]; 50° C.", "value": 39, "unit": "µg/day"}, {"measurement": "Nicotine Mass Loss", "setting": "[3]; 60° C.", "value": 219, "unit": "µg/day"}]}, {"compound": "Nicotine bifumarate", "values": [{"measurement": "Nicotine Mass Loss", "setting": "[3]; 40° C.", "value": 12, "unit": "µg/day"}, {"measurement": "Nicotine Mass Loss", "setting": "[3]; 50° C.", "value": 66, "unit": "µg/day"}, {"measurement": "Nicotine Mass Loss", "setting": "[3]; 60° C.", "value": 305, "unit": "µg/day"}]}, {"compound": "CC(C)(C(=O)O)C(=O)O.CC(C)(C(=O)O)C(=O)O.CN1CCCC1c1cccnc1", "note": "(stereo not drawn) [Nicotine bidimethylmalonate]", "values": [{"measurement": "Nicotine Mass Loss", "setting": "[3]; 40° C.", "value": 4, "unit": "µg/day"}, {"measurement": "Nicotine Mass Loss", "setting": "[3]; 50° C.", "value": 14, "unit": "µg/day"}, {"measurement": "Nicotine Mass Loss", "setting": "[3]; 60° C.", "value": 53, "unit": "µg/day"}]}]}
